Measurements reported in paper PMC11494653, “Teixobactin “Swapmers” with L Tail Stereochemistry Retain Antibiotic Activity” (The Journal of Organic Chemistry, 2024).
In brackets after ≈: the same amount, converted by molar mass. Positions of bridges follow the written chain, without caps; N, C: chain ends. Non-standard residues stand in square brackets, D forms with d. Residues, ends and D or L forms follow the SMILES beside them. Chains are numbered I, II in the order given. NMeF = CN[C@@H](Cc1ccccc1)C(=O)O; Nphe = O=C(O)CNCc1ccccc1

Tests used:
Format in all cases: cell-based
all bacteria tested = test: MIC broth microdilution assay, summary over all bacteria
Excerpt: (§1) We determined the MIC values of these teixobactin swapmer prodrugs against the Gram-positive bacteria Bacillus subtilis, Staphylococcus epidermidis, methicillin-susceptible Staphylococcus aureus (MSSA), and methicillin-resistant Staphylococcus aureus (MRSA) in a broth microdilution assay as described previously.[9],[10] We used the antibiotic vancomycin as a positive control and the Gram-negative bacterium Escherichia coli as a negative control. The MIC values for Lys10-teixobactin 1, Lys10-teixobactin prodrug 2, Arg10-teixobactin 6, and Arg10-teixobactin prodrug 7 are shown in Table 1 for comparison with the swapmer analogues.
(§2) We performed minimum inhibitory concentration (MIC) assays as previously described.[9] A concise procedure is detailed below.
(§3) Stock solutions of teixobactin analogues were prepared gravimetrically by dissolving an appropriate amount of peptide in 20 mg/mL sterile DMSO. The stock solutions were stored at −20 °C for subsequent experiments.
Bacillus subtilis (ATCC 6051), Staphylococcus epidermidis (ATCC 14990), methicillin-susceptible Staphylococcus aureus (MSSA) (ATCC 29213), and Escherichia coli (ATCC 10798) were cultured from glycerol stocks in Mueller-Hinton broth containing 0.002% polysorbate 80 overnight in a shaking incubator at 37 °C. Methicillin-resistant Staphylococcus aureus (MRSA) (ATCC 700698) was cultured from a glycerol stock in brain hearth infusion broth containing 0.002% polysorbate 80 overnight in a shaking incubator at 37 °C. […] Briefly, we have previously determined the CFU/mL for each bacterium at OD600 = 0.075 for 200 μL of bacterial culture in a 96-well plate. The OD600 of each overnight culture was determined, and then each culture was diluted to OD600 = 0.075. […]
Aliquots of the 20 mg/mL peptide stock solutions were diluted to make a 64 μg/mL solution in Mueller-Hinton broth containing 0.002% polysorbate 80 and a 64 μg/mL solution in brain heart infusion broth containing 0.002% polysorbate 80. […] The optical density measurements were measured at 600 nm using a 96-well UV–vis plate reader (MultiSkan GO, Thermo Scientific). […]

[1] = test system: Escherichia coli ATCC 10798; test: microbe, parasite or virus in culture; conditions: ATCC 10798, 16 h
Excerpt: as §1, §2, §3
(§4) Bacillus subtilis (ATCC 6051), Staphylococcus epidermidis (ATCC 14990), methicillin-susceptible Staphylococcus aureus (MSSA) (ATCC 29213), and Escherichia coli (ATCC 10798) were cultured from glycerol stocks in Mueller-Hinton broth containing 0.002% polysorbate 80 overnight in a shaking incubator at 37 °C. Methicillin-resistant Staphylococcus aureus (MRSA) (ATCC 700698) was cultured from a glycerol stock in brain hearth infusion broth containing 0.002% polysorbate 80 overnight in a shaking incubator at 37 °C. After overnight incubation, each culture was diluted with the appropriate media (containing 0.002% polysorbate 80) to 1 × 10^6 colony-forming units (CFU)/mL as previously described.[12],[15],[16] Briefly, we have previously determined the CFU/mL for each bacterium at OD600 = 0.075 for 200 μL of bacterial culture in a 96-well plate. The OD600 of each overnight culture was determined, and then each culture was diluted to OD600 = 0.075. Cultures were further diluted to achieve 1 × 10^6 CFU/mL solutions.
(§5) Aliquots of the 20 mg/mL peptide stock solutions were diluted to make a 64 μg/mL solution in Mueller-Hinton broth containing 0.002% polysorbate 80 and a 64 μg/mL solution in brain heart infusion broth containing 0.002% polysorbate 80. The solutions were mixed by pipetting to ensure homogeneity. A 200-μL aliquot of a 64 μg/mL solution was transferred to a 96-well plate. 2-fold serial dilutions were made with media containing 0.002% polysorbate 80 across the 96-well plate to achieve a final volume of 100 μL in each well (initial concentrations ranging from 64 to 0.0625 μg/mL). A 100-μL aliquot of a 1 × 10^6 CFU/mL bacterial solution was added to each well in the series, resulting in final bacterial concentrations of 5 × 10^5 CFU/mL in each well. As 100 μL of bacteria were added to each well, the concentration of peptide was also diluted 2-fold (final concentrations ranging from 32 μg/mL to 0.03125 μg/mL). Each plate was covered with a lid and incubated at 37 °C for 16 h. The optical density measurements were measured at 600 nm using a 96-well UV–vis plate reader (MultiSkan GO, Thermo Scientific). The MIC values were taken as the lowest concentration that had no bacterial growth. MIC assays for each compound were performed in triplicate to ensure reproducibility.

[2] = test system: Staphylococcus aureus (MSSA) ATCC 29213; test: microbe, parasite or virus in culture; conditions: ATCC 29213, 16 h
Excerpt: as §1, §2, §3, §4, §5

[3] = test system: Bacillus subtilis ATCC 6051; test: microbe, parasite or virus in culture; conditions: for MIC Bacillus subtilis ATCC 6051: ATCC 6051, 16 h
Excerpt: as §1, §2, §3, §4, §5

[4] = test system: Staphylococcus aureus (MRSA) ATCC 700698; test: microbe, parasite or virus in culture; conditions: ATCC 700698, 16 h
Excerpt: as §1, §2, §3, §4, §5

[5] = test system: Staphylococcus epidermidis ATCC 14990; test: microbe, parasite or virus in culture; conditions: ATCC 14990, 16 h
Excerpt: as §1, §2, §3, §4, §5

[6] = concentration range tested up to 32 μg/mL

Structure (SMILES) | antibiotic activity in words against all other bacteria tested (all bacteria tested; all bacteria tested other than B. subtilis) | MIC Escherichia coli ATCC 10798 [1] [µg/mL] | MIC Staphylococcus aureus (MSSA) ATCC 29213 [2] [µg/mL] | MIC Bacillus subtilis ATCC 6051 [3] [µg/mL] | antibiotic activity in words against B. subtilis [3, 6] | MIC Staphylococcus aureus (MRSA) ATCC 700698 [4] [µg/mL] | MIC Staphylococcus epidermidis ATCC 14990 [5] [µg/mL] | antibiotic activity in words against all bacteria tested (all bacteria tested; [6])
CC[C@H](C)[C@H](NC(=O)CNCc1ccccc1)C(=O)N[C@@H](CO)C(=O)N[C@H](C(=O)N[C@@H](CCC(N)=O)C(=O)N[C@H](C(=O)OC[C@H](N)C(=O)N[C@H]1C(=O)N[C@@H](C)C(=O)N[C@@H](CCCCN)C(=O)N[C@@H]([C@@H](C)CC)C(=O)O[C@H]1C)[C@@H](C)CC)[C@@H](C)CC [compound 5, N-Bn-Gly1,Ile4,Gln5,[Ile6-O-Ser7],Lys10-teixobactin] (I: H-[Nphe]ISIQI / II: H-S[dT]AKI; ester I:C-II:1, II:2-II:C) | inactive | >32 | >32 | 32 (≈ 26.6 µM) | only very weakly active | >32 | >32 | –
CC[C@H](C)[C@H](NC(=O)[C@H](CCC(N)=O)NC(=O)[C@H](Cc1ccccc1)NC)C(=O)N[C@@H](CO)C(=O)N[C@H](C(=O)N[C@@H](CCC(N)=O)C(=O)N[C@H](C(=O)OC[C@H](N)C(=O)N[C@H]1C(=O)N[C@@H](C)C(=O)N[C@@H](CCCNC(=N)N)C(=O)N[C@@H]([C@@H](C)CC)C(=O)O[C@H]1C)[C@@H](C)CC)[C@@H](C)CC [compound 9, N-Me-Phe0,Gln1,Ile4,Gln5,[Ile6-O-Ser7],Arg10-teixobactin] (I: H-[NMeF]QISIQI / II: H-S[dT]ARI; ester I:C-II:1, II:2-II:C) | – | >32 | >32 | >32 | – | >32 | >32 | completely inactive
